Data set [1] relates to LNCaP (prostate carcinoma) cells. In words: cells. It counts as cell-based, human. Particulars: for cell survival: LNCaP, CV787 MOI 0.01. How it is done:
In preliminary experiments, we examined the chemosensitivity to different agents, as well as the oncolytic effect of CV787 in the prostate carcinoma LNCaP cells. Cells were plated in 96-well plates at a density of 20,000 cells per well. […] […] Cells were incubated at 37° C. in 5% CO2 for an additional two days. Cell viability was measured using the MTT assay. Mosmann et al., (1983). Briefly, 50 μl of 1 mg/ml MTT vital dye (Sigma, St. Louis, Mo.) was added to each well and allowed to incubate for 3 h at 37° C. and 5% CO2. Then, plates were drained to remove untransformed MTT and blot. 100 μl of isopropanol was added to each well, the plate was incubated for 15 minutes and vigorously shaken (Microshaker II, Dynatech) in order to ensure solubilization of the blue formazan. The optical density of each well was quantitated using an automatic plate reader (Molecular Devices, Sunnyvale, Calif.) with a 560 nm test wavelength and 690 nm reference wavelength. Cell viability was defined as the ratio of the mean absorbance of 9 treatment wells minus the blank to the mean absorbance of 6 untreated matched controls minus the blank. […] Each experiment was performed at least twice.
To study potential synergy or enhancement in treatment when administering CV787 and chemotherapy in vitro, the effectiveness of the combined treatment at several concentrations of paclitaxel, ranging from 0-62.5 nM, […], with CV787 at various MOIs, ranging from 0-10 MOI, was evaluated in the prostate carcinoma LNCaP cells. Cells were treated with CV787 and paclitaxel or docetaxel and the cell viability was determined at various time points after treatment by an MTT assay, as shown in FIGS. 2-4. […] To determine whether the timing of administration for the testing articles affected the combined oncolytic effect, LNCaP cells were treated with paclitaxel for 24 hours before or after infection with CV787.
The protocols described above were used to screen a number of different chemotherapeutic agents from various classes of chemotherapeutics. […]

Data set [2] deals with caspase-7, poly-ADP-ribose-polymerase, Fas/Fas-L, Bcl-2, Bcl-XL, Bax. In words: Immunoblot of apoptosis related protein markers in treated LNCaP cells. It counts as cell-based, human. Conditions: docetaxel 6.0 nM, CV787 MOI 0.5. An excerpt:
Enhanced chemiluminescence (ECL; Amersham Pharmacia) was used for detection. […] All antibodies were used according manufacturer's instruction.

The test system of data set [3] is LNCaP prostate tumor xenografts. It counts as in vivo, athymic Balb/c nu/nu mice. The source says:
Six to eight week old athymic Balb/c nu/nu mice were obtained from Simonson Laboratories (Gilroy, Calif.) and acclimatized to laboratory conditions one week prior to tumor implantation. Xenografts were established by injecting 1×10^6 LNCaP cells, suspended in 100 μd of RPMI 1640 and 100 μd of matrigel, subcutaneously near the small of the back. When tumors reached between 400 mm^3 and 600 mm^3, mice were randomized into groups of four. The first group received 1×10^10 particles of CV787 at day 1 via the tail vein intravenously (i.v.). CV787 was diluted in 0.1 ml lyophilized buffer (5% sucrose, 1% glycine, 1 mM MgCl2, 0.05% Tween-80 in 10 mM Tris buffer) and injected into the tail vein using a 28-gauge needle. The second group was given taxane only. Paclitaxel was intraperitoneally administered at a dose of 20 mg/kg, daily for 4 days starting at day 2. Docetaxel was intravenously administered at a dose of 5 or 12.5 mg/kg at day 2, 5 and 8. The third group was given CV787 (i.v.) at day 1 and taxane at the same doses and schedule as the second group. As a control, a fourth group was treated with 0.1 ml of normal saline (i.e. control) i.v. at day 1 and then i.p. or i.v. for 4 days. The dose and route of administration of paclitaxel were selected according to studies in nude mice (Riondel, J. et al., 1986, Cancer Chemother Pharmacol. 17:137-42.) (Chahinian, A. P. et al., 1998, J. Surg. Onc. 67:104-111.). For docetaxel, the dose was selected based on the human clinical dose. (RPR Pharm. Inc., Collegeville, Pa.) and determined by a dose-range finding study in nude mice. Tumors were measured weekly in two dimensions by external caliper and volume was estimated by the formula [length (mm)×width (mm)^2]/2 (7). Animals were humanely killed when their tumor burden became excessive. Serum was harvested weekly by retro-orbital bleed. The difference in mean tumor volume between treatment groups was compared for statistical significance using the unpaired, two-tailed, t-test. Blood samples were collected at various time points for determining prostate-specific antigen. Federal and institutional guidelines for animal care were followed.
Six to eight week old athymic Balb/c nu/nu mice were obtained from Simonson Laboratories (Gilroy, Calif.) and acclimatized to laboratory conditions one week prior to tumor implantation. Xenografts were established by injecting 1×10^6 LNCaP cells subcutaneously near the small of the back suspended in 100 μl of RPMI 1640 and 100 μl of maltrigel (Collaborative Biochemical Products). When tumors reached between 400 mm^3 and 600 mm^3, mice were randomized in groups of four each to receive either 1×10^10 particles of CV787 at day 1 via the tail vein or paclitaxel, 20 mg/kg intraperitoneally (i.p.) daily for 4 days starting at day 2, versus controls treated with normal saline 0.1 ml i.v. at day 1 and then i.p. for 4 days. In addition, another group of mice received the combination of CV787 and paclitaxel at the same doses and schedule as above. CV787 was diluted in lyophilized buffer and injected into tail vein in a volume of 0.1 ml using a 28-gauge needle. The dose and route of administration of paclitaxel were selected according to studies in nude mice by Riondel et al., (1986) Cancer Chemother Pharmacol. 17:137. These authors conducted acute toxicity studies of paclitaxel in nude mice and selected the unit dose of 12.5 mg/kg daily, being 1/20th of the LD50 dose (lethal dose for 50% of animals). Tumors were measured weekly in two dimensions by external caliper and volume was estimated by the formula [length (mm)×width (mm)^2]/2. Animals were humanely killed when their tumor burden became excessive. Serum was harvested weekly by retro-orbital bleed. The difference in mean tumor volume between treatment groups was compared for statistical significance using the unpaired, two-tailed, t-test. Blood samples were collected at various time points for determining prostate-specific antigen (PSA). […]

The format of data set [4] is in vivo, Balb/C mice. Conditions: docetaxel alone. An excerpt:
Finally, and of clinical significance are two other results. […] Indeed, animals treated with both CV787 and taxotere gain 24% more weight than untreated control animals (Table 2).

Data set [5] concerns LNCaP prostate tumor xenografts. It counts as in vivo, athymic Balb/c nu/nu mice. Particulars: for change in tumor growth (FIG. 24): alone or with CV787 1×10^10 particles, 5 week period.
Data set [6] shares this test system. In words: LNCaP xenograft antitumor efficacy, intratumorally administered CV787 with paclitaxel. Conditions: 6 weeks after treatment. It counts as in vivo, athymic Balb/c nu/nu mice. The protocol: Six to eight week old athymic Balb/c nu/nu mice were obtained from Simonson Laboratories (Gilroy, Calif.) and acclimatized to laboratory conditions one week prior to tumor implantation. Xenografts were established by injecting 1×10^6 LNCaP cells subcutaneously near the small of the back suspended in 100 μl of RPMI 1640 and 100 μl of maltrigel (Collaborative Biochemical Products). When tumors reached between 400 mm^3 and 600 mm^3, mice were randomized in groups of four each to receive either 1×10^10 particles of CV787 at day 1 via the tail vein or paclitaxel, 20 mg/kg intraperitoneally (i.p.) daily for 4 days starting at day 2, versus controls treated with normal saline 0.1 ml i.v. at day 1 and then i.p. for 4 days. […] Tumors were measured weekly in two dimensions by external caliper and volume was estimated by the formula [length (mm)×width (mm)^2]/2. […]
The in vivo antitumor efficacy of intratumorally administered CV787 and the interaction of CV787 in the combination with paclitaxel was assessed in the LNCaP mouse xenograft model as described above. […]
All treatment groups received identical injections of the active agent or vehicle control into both the tumor and peritoneum. Tumor volume was measured just before the injection of test articles and once a week for 6 weeks thereafter.

Setting [7] is: CV787 1×10^10 particles i.v. single dose, paclitaxel 20 mg/kg 4 doses.

Each structure is given as a SMILES string. pIC50: −log10 of the molar value. Read-outs that look alike come from different tables or passages of the source.

As for `CC(=O)O[C@@]12CO[C@@H]1C[C@H](O)[C@@]1(C)C(=O)[C@H](O)C3=C(C)[C@@H](OC(=O)[C@H](O)[C@@H](NC(=O)OC(C)(C)C)c4ccccc4)C[C@@](O)([C@@H](OC(=O)c4ccccc4)[C@H]21)C3(C)C` [docetaxel], the pIC50 in data set [1] (Homo sapiens, 120 h, LNCaP cells, day 5, dose-response curve analysis) is 8.09. In addition, in data set [1] (day 7 post treatment, % of the control, docetaxel 3.12 nM 24 hour before virus), the cell survival is 95%. In addition, the “change of Bcl-2 expression” value in data set [2] was “did not observe a significant change”. Further, the “effect of single agent on tumor growth” value in data set [3] (CV787 1×10^10 particles i.v., docetaxel 5.0 mg/kg i.v.) is listed as “stabilization of tumor growth”. The “minimum tumor volume, % of the original tumor volume” value in data set [3] (docetaxel 5 mg/kg alone, reached by week 1) is listed as “approximately 50%”. Also, in data set [3] (docetaxel 5 mg/kg, CV787 1×10^10 particles (CV787 alone also 1×10^11 particles), 6 weeks), the “course of tumor volume (FIG. 29)” value is listed as “by week 6 has reached the starting tumor volume”. Moreover, the body weight entry in data set [4] is “transient weight loss”. Also, the “relative tumor volume, % of baseline” value in data set [5] (four weeks after treatment, CV787 1×10^10 particles i.v. day 1, docetaxel 10 mg/kg i.v.) is 49 % of baseline.
Regarding `CC(=O)O[C@H]1C(=O)[C@@]2(C)[C@H]([C@H](OC(=O)c3ccccc3)[C@]3(O)C[C@H](OC(=O)[C@H](O)[C@@H](NC(=O)c4ccccc4)c4ccccc4)C(C)=C1C3(C)C)[C@]1(OC(C)=O)CO[C@@H]1C[C@@H]2O` [paclitaxel], in data set [1] (6 days after virus infection, paclitaxel 6.25 nM), the cell survival is on record as 100%. Besides, the “time after treatment at which the regression was produced” value in data set [3] (setting [7]) is reported as 2 weeks. Also, the tumor regression produced entry in data set [3] (setting [7]) is recorded as “partial tumor regression”. Besides, the “tumor growth inhibition compared with the control group” value in data set [3] (day 21, CV787 1×10^10 particles, paclitaxel 20 mg/kg) came out at 70%. In addition, the “relative tumor volume, % of baseline” value is 31 % of baseline in data set [3] (four weeks after treatment, CV787 1×10^10 particles i.v. day 1, paclitaxel 20 mg/kg i.p. daily for 4 days) and 149 % of baseline in data set [3] (ten weeks after treatment, CV787 1×10^10 particles i.v., paclitaxel 20 mg/kg). Also, the average tumor volume in data set [6] (CV787 1×10^7 particles/mm^3 intratumoral day 1, paclitaxel 15 mg/kg daily for four days) was determined as 630 mm^3. The “average tumor volume, % of baseline” value in data set [6] (CV787 1×10^7 particles/mm^3 intratumoral, paclitaxel 15 mg/kg) is 166 % of baseline. Also, the “change in tumor growth (FIG. 24)” value is reported as “progressive enlargement of the tumor” in data set [5] (paclitaxel 2 mg/kg) and “merely arrests tumor growth” in data set [5] (paclitaxel 10 mg/kg).

These data come from US7276233B2, “Methods of treating neoplasia with combinations of target cell-specific adenovirus and chemotherapy” (priority 2001, dated 2007).
